Here are results for 1 compound from patent publication US20220304302A1, “MUCILAGE BASED PLANT PROTECTION PRODUCT AND METHOD THEREOF” (BOTANOHEALTH LTD., priority 2019, published 2022).

The subject of this assay is Powdery mildew. In words: Powdery mildew on whole Bell pepper plants. The following applies: 1000 spores, evaluated every 24 hours for 3 days. Format: in vivo. As for the experimental part:
Bell pepper plants where obtained at 4 weeks, replanted and acclimatized (22-28° C., 16 hour light). • ii. Plants where divided between treated plants: present formulation/active agent (thyme oil 0.1%)+Soap, negative control plants (no active fungicide) and a positive control (Penconazole, Ophir 2000). The plants were treated on 4 leafs, at 6 places on each leaf, with a solution containing 1000 spores. Infected plants were preserved in a moist environment. • iii. Fungi infestation was evaluated every 24 hours for 3 days: • i. Treated: 55% of leafs where infected; • ii. Negative control: 97.5 of leafs where infected • iii. Positive control: 40% of leafs where infected

Turning to `CCCC(Cn1cncn1)c1ccc(Cl)cc1Cl` (stereo not shown) [Penconazole], the leafs infected was 40%.
